Literature values, collected in PMC6547379 (The European respiratory journal, 2018).

Tested on: CF patients
Conditions: ref [34]

## Cc1c(-c2ccnn2C)cc(C(=O)NCc2ccc(S(C)(=O)=O)cn2)c(=O)n1-c1cccc(C(F)(F)F)c1 [AZD9668]
  effect on inflammation / lung function in CF patients: no effect on inflammation or lung function
